Columns and labels:
[1] = system: BEL-7404 xenograft; settings: BEL-7404 model, 5-Fu 20.0 mg/kg per two days iv
Protocol: In vivo anticancer efficacy of chiral platinum(II) complex 6 was evaluated using BEL-7404 and BEL-7402 xenograft mouse models. BEL-7404 and BEL-7402 cells were injected into nude mice. The mice were randomized into the control group, complex 6-treated group, and the positive control group (n = 6/group). When the volume of tumor was about 80 mm^3, complex 6 was given at a high (8 mg/kg) and low (4 mg/kg) dosage daily for 18 days, 5-FU (20 mg/kg every two days) and Cisplatin (2 mg/kg every two days) were used as a positive control in the BEL-7404 and BEL-7402 xenograft model, respectively.
To evaluate the vivo anticancer efficacy of complex 6, BEL-7404 and BEL-7402 xenograft mouse models (BALB/c nude mice, female for BEL-7404 model, 17–20 g, 6–7 weeks old; male for BEL-7402 model, 18-21 g, 6–7 weeks old) were used. Furthermore, animal used, maximum tolerated dose (MTD) analysis, acute toxicity studies and antitumor activity toward BEL-7404 and BEL-7402 models in vivo of complex 6, was similar to Chen reported.
H21T (3.5 pmol; 5’-G [T AG ] -3’), primer TS (18 pmol; tumor tissue were cut into about 1.5 mm3 small pieces, and […]
5’-[…]-3’), KCl (63 mM), then transplanted into the right flank of nude mice. When EGTA (1 mM), MgCl (1.5 mM), Tween-20 (0.005%), the average tumors reach a volume of about 80 mm3, the […]
primer NT (7.5 pmol; 5’-[…]-3’), mice were randomized into 4 groups (n=6), received the […]
TSNT internal control (0.01 amol; 5’-[…] following treatments: (a) control, received saline solvent; […]
-3’), primer (b) complex 6 at doses of 8.0 mg/kg daily (dissolve in […]
Cxext (22.5 pmol; 5’-[…] saline, iv); (c) complex 6 at doses of 4.0 mg/kg daily; […]
[…]-3’), Taq DNA polymerase (2.5 U), and (d) in BEL-7404 model, 5-fluorouracil (5-Fu) as positive telomerase (100 ng). Complexes or/and distilled water control at 20 mg/kg per two days (dissolve in saline, iv); was added ([…]). PCR was performed in an Eppendorf in BEL-7402 model, cisplatin as positive control at 2 mg/ Master cycler equipped with a hot lid and incubated for kg per two days (dissolve in saline, iv).
30.0 min at 30 °C, followed by 92 °C 30 s, 52 °C 30 s, The tumor volumes and body weight was monitored and 72°C 30 s for 30.0 cycles. After amplification, 8.0 every 3 days, The tumor volumes were estimated by […] loading buffer (5×TBE buffer, 0.2% xylene cyanol, measuring the two dimensions of the tumors using caliper and 0.2% bromophenol blue ) were added to the reaction. and calculated by the formula 1 [1, 6, 14]:
An […] of aliquot was loaded onto a nondenaturing V = (length × width2)/2(1) acrylamide gel (19:1, 16%) in 1×TBE buffer and resolved at 200.0 V for 1.0 h. Gels were fixed and then stained with On day 18, the mice were sacrificed, and tumor AgNO3 [8–11]. tissue were dissected out and weighted, tumor growth inhibition rate calculated using formulas 2 and 3 [1, 6,
In order to verify whether complexes 4–6 can TGI (%) = (ΔVc − ΔVt)/ΔVc×100%(2) directly regulate c-myc promoter (Pu27) and the IR(%) = (Wc − Wt)/Wc×100%(3) expression of hTRET in BEL-7404 cells, consequently Where ΔVt = tumor volumefinal −tumor volumeinitial inhibiting the telomerase function, we constructed EGFP for compound treated group, ΔVc=tumor volumefinal − and c-myc gene vectors according to those illustrated tumor volumeinitial for vehicle control group; Wt and Wc in Chalfie, Chen and He previous work. The detailed mean the average tumor weight of complex-treated and procedures for the construct of gene (c-myc and EGFP vehicle controlled group respectively. genes) vectors, and the method of transfection assays REFERENCES have been reported by Chalfie, Chen and He [1, 6, 9, 12,

[2] = system: BEL-7404 cells; test: Cytotoxicity assay (MTT assay); format: cell-based, human; settings: BEL-7404, 100 μM
[3] = system: A549 cells; test: Cytotoxicity assay (MTT assay); format: cell-based, human; settings: A549, 100 μM
[4] = system: MGC80-3 cells; test: Cytotoxicity assay (MTT assay); format: cell-based, human; settings: MGC80-3, 100 μM
[5] = system: HeLa cells; test: Cytotoxicity assay (MTT assay); format: cell-based, human; settings: 100 μM
[6] = system: Hep-G2 cells; test: Cytotoxicity assay (MTT assay); format: cell-based, human; settings: Hep-G2, 100 μM
[7] = system: BEL-7402 cells; test: Cytotoxicity assay (MTT assay); format: cell-based, human; settings: BEL-7402, 100 μM

| Structure (SMILES) | Tumor volume (start) [1] [mm3] | Average tumor weight (mean ± SD g) ([1]; day 18) [g] | Tumor volume (end) ([1]; day 18) [mm3] | Inhibitory rates (%) ([2]; 24 h) | Inhibitory rates (%) ([2]; 48 h) | Inhibitory rates (%) ([3]; 24 h) | Inhibitory rates (%) ([3]; 48 h) | Inhibitory rates (%) ([4]; 24 h) | Inhibitory rates (%) ([4]; 48 h) | Inhibitory rates (%) ([5]; 24 h) | Inhibitory rates (%) ([5]; 48 h) | Inhibitory rates (%) ([6]; 24 h) | Inhibitory rates (%) ([6]; 48 h) | Inhibitory rates (%) ([7]; 24 h) | Inhibitory rates (%) ([7]; 48 h) |
| --- | --- | --- | --- | --- | --- | --- | --- | --- | --- | --- | --- | --- | --- | --- | --- |
| O=c1[nH]cc(F)c(=O)[nH]1 [5-FU, 5-fluorouracil, reference compound] | 75.95±25.57 | 0.47 ± 0.20 | 576.17±297.34 | – | – | – | – | – | – | – | – | – | – | – | – |
| C[S](C)(=O)[Pt]([Cl])([Cl])[S](C)(C)=O [cis-Pt(DMSO)2Cl2] | – | – | – | 5.3 ± 1.5 | 8.0 ± 0.7 | 15.1 ± 1.7 | 22.3 ± 0.5 | 10.2 ± 1.3 | 30.4 ± 0.8 | 19.8 ± 0.7 | 25.4 ± 1.2 | 10.1 ± 0.4 | 13.8 ± 0.7 | 8.6 ± 2.4 | 12.3 ± 0.4 |

Reference: PMC5617480 (Oncotarget, 2017)
